From patent US11377423B2, “Inhibitors of histone deacetylase” (The Broad Institute, Inc., priority 2012, dated 2022)
“Also recorded” adds a separate entry of the source.

What was measured:
HDAC1 = HDAC1 (Homo sapiens (Human), UniProt Q13547); assay: Binding constant from HDAC1 inactivation kinetics
Method: HDAC1 inactivation kinetic constant was determined by curve-fitting of the plot to a first-order rate equation.

HDAC6 = HDAC6 (Homo sapiens (Human), UniProt Q9UBN7); assay: Caliper HDAC enzymatic endpoint assay, HDAC6; format: biochemical; settings: Table 2C; read-out: HDAC6 IC50 after 0 hr preincubation
Method: Substrate A was prepared as 2 mM in DMSO. Its final concentration in the assay for HDACs 1, 2, 3, 6 is 2 μM.
Below is the HDAC and Substrate concentration used in this assay.

HDAC7 = HDAC7 (Homo sapiens (Human), UniProt Q8WUI4); assay: Caliper HDAC enzymatic endpoint assay, HDAC7; format: biochemical; settings: Table 2C; read-out: HDAC7 IC50 after 0 hr preincubation
Sequence of HDAC7 (Q8WUI4 whole entry): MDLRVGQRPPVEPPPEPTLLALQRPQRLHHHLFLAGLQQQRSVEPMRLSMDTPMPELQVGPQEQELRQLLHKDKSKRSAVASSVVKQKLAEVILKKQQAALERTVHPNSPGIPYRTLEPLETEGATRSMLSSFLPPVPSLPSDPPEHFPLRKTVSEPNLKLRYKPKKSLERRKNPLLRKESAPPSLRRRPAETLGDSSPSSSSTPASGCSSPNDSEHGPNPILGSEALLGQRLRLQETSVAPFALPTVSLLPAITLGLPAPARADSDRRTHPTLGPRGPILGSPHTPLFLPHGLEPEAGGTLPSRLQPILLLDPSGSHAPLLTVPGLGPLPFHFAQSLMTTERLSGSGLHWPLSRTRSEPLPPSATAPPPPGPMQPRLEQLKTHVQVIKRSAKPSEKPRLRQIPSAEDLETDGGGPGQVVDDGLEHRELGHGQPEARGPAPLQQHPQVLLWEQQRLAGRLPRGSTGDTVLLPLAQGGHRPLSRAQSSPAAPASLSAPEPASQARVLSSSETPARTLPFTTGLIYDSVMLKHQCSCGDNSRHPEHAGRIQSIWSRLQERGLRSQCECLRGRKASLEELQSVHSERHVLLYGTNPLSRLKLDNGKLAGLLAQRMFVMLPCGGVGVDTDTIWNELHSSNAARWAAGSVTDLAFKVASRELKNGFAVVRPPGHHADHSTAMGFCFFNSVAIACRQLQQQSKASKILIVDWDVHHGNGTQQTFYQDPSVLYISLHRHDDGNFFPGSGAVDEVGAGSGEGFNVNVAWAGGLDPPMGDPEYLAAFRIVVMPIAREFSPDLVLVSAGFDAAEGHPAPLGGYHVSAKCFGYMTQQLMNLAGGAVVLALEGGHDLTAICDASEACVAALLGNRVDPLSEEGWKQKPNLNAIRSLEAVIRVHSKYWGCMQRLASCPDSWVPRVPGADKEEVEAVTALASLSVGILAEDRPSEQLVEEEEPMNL
Method: The Caliper HDAC Assay Buffer (acronym HAB, 1 liter) was prepared as follows:
Substrate B was prepared as 2 mM in 100% DMSO. Its final concentration in the assay for HDACs 4, 5, 7, 8, 9 is 2 μM.
LBH was used as quench inhibitor to stop the reaction at the end point.
IC50 values are in micromolar.

[1] = Fear conditioning assay in normal animals; format: in vivo; settings: wild type normal mouse, single dose
Description: In one aspect, the invention provides methods and compositions for promoting cognitive function and enhancing learning and memory formation in both normal subjects as well as those suffering from memory loss and cognitive function disorders/impairments. […] A normal subject, as used herein, is a subject that has not been diagnosed with a disorder associated with impaired cognitive function. “Cognitive function” refers to mental processes of a subject relating to information gathering and/or processing; the understanding, reasoning, and/or application of information and/or ideas; the abstraction or specification of ideas and/or information; acts of creativity, problem-solving, and possibly intuition; and mental processes such as learning, perception, and/or awareness of ideas and/or information. The mental processes are distinct from those of beliefs, desires, and the like.

INS-1E cells = assay: Cytokine-induced beta-cell apoptosis, caspase-3 activity assay; format: cell-based, rat
Method: Compounds of the invention were evaluated for their ability to suppress cytokine-induced beta-cell apoptosis and palmitate and/or glucose-induced beta-cell apoptosis by inhibition of HDAC3. Assay protocols were as follows: Cell culture and reagents. […] Recombinant IL-1β, IFN-γ, and TNF-α were purchased from R&D Systems. Palmitate, D-glucose and fatty acids-free low endotoxin BSA were purchased from Sigma. Palmitate was solubilized in 90% ethanol, heated to 60° C. and used 1:100 dilution in media. Caspase-Glo 3/7 was from Promega and 3-(4,5-dimethylthiazol-2-yl)-2,5-diphenyltetrazolium bromide (MTT) was from Calbiochem. Antibodies for HDAC1, HDAC2, HDAC3, pJNK, JNK cleaved caspase-9 and secondary horseradish-peroxidase conjugated goat anti-mouse and anti-rabbit antibodies were from Cell Signaling. Antibody for beta-actin was from Sigma and antibody against CHOP (GADD153) from Abcam. HDAC inhibitors were purchased from Selleck Chemicals or synthesized in-house. Primers were from Integrated DNA Technologies, High Capacity cDNA RT kit and SYBR green master mix were purchased from Applied Biosystems. INS-1E cells were seeded at 5,000 cells/well using a Multidrop Combi (Thermo Labsystems) in white optical 384-well plates (Corning Life Sciences). After overnight incubation, medium was removed and 50 μL RPMI containing the treated compound, 1% FBS and either a combination of cytokines (10 ng/mL IL-1β, 50 ng/mL IFN-γ, 25 ng/mL TNF-α) or 0.5 mM sodium palmitate was added to every well. After two-day treatment, medium was removed and 20 μL Caspase-Glo 3/7 reagent was added. Luminescence was measured after a two-hour incubation using an Envision plate reader (PerkinElmer). […] The rat INS-1E cell line was simultaneously treated for 48 hours with a combination of pro-inflammatory cytokines IL-1β, IFN-γ, and TNF-α, and the indicated test compounds. […] Compound 9, a negative control, had no effect. […] FIGS. 9C and 9D show a dose-response analysis of HDAC inhibition in suppression of cytokine-induced beta-cell apoptosis. […] This could translate to a larger therapeutic window. […]

Rat islets = assay: Glucolipotoxicity-induced apoptosis in rat islets, cell death ELISA; format: cell-based; settings: 10 μM, 0.5 mM palmitate and 25 mM glucose, 60 h
Method: Rat islets (50 islets/well) were cultured in 48-well plates (NUNC) and exposed to palmitate (0.5 mM) and glucose (25 mM) in medium supplemented with 1% FBS and 1% BSA for 60 hours. Cell death was determined in biological duplicates using a cell death ELISA assay (Roche).
Compounds of the invention protect against combined palmitate and high glucose induced apoptosis in INS-1E cells. […] Apoptosis was measured by caspase-3 activity assay.

FGF21 = FGF21 mRNA expression in HepG2 cells; format: cell-based, human
Method: Compounds of the invention were evaluated for their ability to upregulate FgF21 mRNA expression in HepG2 cells. FgF21 (Fibroblast growth factor 21) is a potent insulin sensitizer and stimulatory signal for fat oxidation. (Li, H. et al. Diabetes, 61, 797, 2012; […]., The American Journal of Clinical Nutrition, 91, […], 2010). The assay protocol was as follows. HepG2 cells were cultured in DMEM and 10% FBS. […] We treated cells with the indicated compounds for two hours, and lysed and extracted mRNA using the Rneasy kit (Qiagen). […] Quantitative PCR was performed using Taqman probes specific for human FGF21 and human actin.

[2] = test system: human megakaryocyte progenitors; assay: Growth of human megakaryocyte progenitors (surrogate assay for platelet depletion); format: cell-based; settings: 0.1, 1, 10 and 20 μM, relative to DMSO treated cells
Method: Compounds of the invention were evaluated for their effect on the growth of human megakaryocyte progenitors (surrogate assay for platelet depletion). Human CD34+ cells were grown in a collagen-based gel (Megacult-C, Stemcell Technologies). […] 100% indicates no difference in cell viability relative to the DMSO treated cells. […] This is the desired effect.

[3] = test system: HDACs 1, 2, 3, 4, 5, 6, 7, 8, and 9; assay: HDAC selectivity panel (Caliper), isoform selectivity; settings: from IC50 values

Sequence of HDAC1 (Q13547 whole entry): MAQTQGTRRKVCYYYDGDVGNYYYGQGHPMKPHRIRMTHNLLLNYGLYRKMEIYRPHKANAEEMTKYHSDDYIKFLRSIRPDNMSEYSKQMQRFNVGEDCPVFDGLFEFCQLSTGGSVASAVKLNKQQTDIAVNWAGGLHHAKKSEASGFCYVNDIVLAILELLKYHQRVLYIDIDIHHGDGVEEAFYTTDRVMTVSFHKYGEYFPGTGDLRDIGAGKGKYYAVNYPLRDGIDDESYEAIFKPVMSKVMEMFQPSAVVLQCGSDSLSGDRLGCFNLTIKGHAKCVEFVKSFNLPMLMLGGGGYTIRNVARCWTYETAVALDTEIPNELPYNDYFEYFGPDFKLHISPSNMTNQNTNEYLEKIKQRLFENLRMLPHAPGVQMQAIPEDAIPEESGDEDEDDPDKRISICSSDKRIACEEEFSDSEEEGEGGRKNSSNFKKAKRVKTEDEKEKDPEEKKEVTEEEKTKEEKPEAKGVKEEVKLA
Sequence of HDAC6 (Q9UBN7 whole entry): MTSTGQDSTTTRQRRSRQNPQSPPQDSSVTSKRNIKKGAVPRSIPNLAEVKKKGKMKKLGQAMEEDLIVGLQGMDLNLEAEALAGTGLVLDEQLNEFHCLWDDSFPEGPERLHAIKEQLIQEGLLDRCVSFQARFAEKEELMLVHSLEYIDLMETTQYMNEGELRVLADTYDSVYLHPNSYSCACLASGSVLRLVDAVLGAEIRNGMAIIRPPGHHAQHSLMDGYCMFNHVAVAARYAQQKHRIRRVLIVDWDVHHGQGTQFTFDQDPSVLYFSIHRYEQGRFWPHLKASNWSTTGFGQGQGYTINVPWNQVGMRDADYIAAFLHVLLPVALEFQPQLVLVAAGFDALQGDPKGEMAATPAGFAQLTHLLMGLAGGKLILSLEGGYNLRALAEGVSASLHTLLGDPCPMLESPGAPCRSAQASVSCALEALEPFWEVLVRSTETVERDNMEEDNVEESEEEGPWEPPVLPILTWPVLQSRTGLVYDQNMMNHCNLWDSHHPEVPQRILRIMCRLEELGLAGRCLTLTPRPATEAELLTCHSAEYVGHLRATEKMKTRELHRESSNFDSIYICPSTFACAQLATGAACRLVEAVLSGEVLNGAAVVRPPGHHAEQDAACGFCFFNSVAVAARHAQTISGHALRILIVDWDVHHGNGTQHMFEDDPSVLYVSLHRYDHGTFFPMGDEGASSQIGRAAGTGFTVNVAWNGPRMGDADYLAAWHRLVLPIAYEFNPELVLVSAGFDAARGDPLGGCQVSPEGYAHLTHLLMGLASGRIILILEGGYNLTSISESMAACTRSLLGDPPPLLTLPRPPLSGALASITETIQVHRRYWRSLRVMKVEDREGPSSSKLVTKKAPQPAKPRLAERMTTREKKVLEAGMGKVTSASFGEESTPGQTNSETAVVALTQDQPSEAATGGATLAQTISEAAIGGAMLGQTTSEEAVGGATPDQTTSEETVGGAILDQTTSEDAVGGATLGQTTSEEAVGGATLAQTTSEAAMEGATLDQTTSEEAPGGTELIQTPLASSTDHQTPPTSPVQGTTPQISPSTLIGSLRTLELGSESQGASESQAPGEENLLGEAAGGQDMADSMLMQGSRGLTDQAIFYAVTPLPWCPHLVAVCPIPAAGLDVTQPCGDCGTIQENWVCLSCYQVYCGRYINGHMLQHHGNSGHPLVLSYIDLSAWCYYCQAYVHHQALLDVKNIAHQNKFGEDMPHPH

Question: For `CC(=O)Nc1ccc(C(=O)Nc2ccc(F)cc2N)cc1` [Compound 1, 4-acetamido-N-(2-amino-4-fluorophenyl)benzamide], which KI (inactivation) (HDAC1; HDAC1, values marked *, read-out: Ki (binding constant derived from HDAC1 inactivation kinetics)) is on record?
Answer: 5.1 µM

Question: What about the Kd (HDAC1; from Kinactivation vs concentration, read-out: Kd of HDAC1-Compound 1 complex) of the same compound?
Answer: 5.1 µM

Question: And the IC50 (HDAC6)?
Answer: > 33 µM

Question: What about the IC50 (HDAC7) of the same compound?
Answer: > 33 µM

Question: And the “effect in fear conditioning assay” value [1]?
Answer: no effect was observed

Question: What about the “suppression of cytokine-induced beta-cell apoptosis (caspase activity)” value (INS-1E cells; IL-1β, IFN-γ, TNF-α, 48 hours, 5 μM compound) of the same compound?
Answer: as effective at suppressing cyctokine-induced beta-cell apoptosis as CI-994

Question: What about the “suppression of caspase-3 activity, comparison of compounds” value (INS-1E cells; cytokines, 0.1-10 μM, dose dependent) of the same compound?
Answer: more effective at suppressing caspase-3 activity

Question: And the “glucolipotoxicity-induced apoptosis in rat islets” value (Rat islets)?
Answer: decreases glucolipotoxicity-induced apoptosis in rat islets

Question: And the “FGF21 expression (FGF21/actin), dose response” value (FGF21)?
Answer: dose response increases in FGF21 expression

Question: What about the “FGF21 mRNA expression” value (FGF21; 20 μM, two hours) of the same compound?
Answer: upregulates FGF21 mRNA expression

Question: And the “effect on growth and viability of human megakaryocyte progenitor cells” value [2]?
Answer: does not significantly inhibit cell growth; also recorded: no significant effect on growth and viability

Question: And the “HDAC isoform selectivity” value [3]?
Answer: HDAC3 selective compound
